Assay results from US6767558B2, “Inhibiting oxidative degradation of pharmaceutical formulations” (Pfizer Inc., priority 2000, dated 2004).

Key:
[1] = Accelerated stability of Compound 2 formulations; N-oxide degradation product by RPLC; assay type: physicochemical; details: addition of ferrous ion source to the formulations, six weeks
Experimental: Compound 2 was similarly formulated with, inter alia, excipients comprising about 0.01% of ferrous ammonium sulfate hexahydrate into solid binary pharmaceutical formulations. The excipients further included microcrystalline cellulose (Avicel®), lactose, or silicified microcrystalline cellulose (Prosolv®; Penwest Pharmaceuticals; Patterson, N.Y.).
The formulations so prepared were then stored under accelerated stability conditions, i.e. at 40° C. at 75% relative humidity and 50° C. at 20% relative humidity for six weeks. Reversed-phase ion pair liquid chromatography (RPLC) was used to separate Compound 2 from its N-oxide oxidative degradation product. RPLC was performed utilizing a Waters Symmetry C18 column (Waters Instrument Co.; Milford, Mass.) 15 cm length×3.9 mm I.D. at a temperature of 40° C. using a mobile phase of buffer (20 mM KH2PO4 (pH adjusted to 3.0 with phosphoric acid, with 0.1% octanesulfonic acid): acetonitrile (60:40 v/v), a flow rate of 1.0 mL/min., and an injection volume of 10 μL at a run time of 35 minutes. [drawing 2]

[2] = Accelerated stability of Compound 1 tablets; oxidative degradation by-products by RPLC; assay type: physicochemical; details: addition of ferrous ion source to the formulation, six weeks
Experimental: Compound 1 was formulated with, inter alia, excipients comprising about 0.01% by weight of ammonium ferrous sulfate hexahydrate into solid binary pharmaceutical formulations as follows. A solution of 350 mg of ferrous ammonium sulfate hexahydrate, dissolved in 100 ml of pure water, was added to 500 g of microcrystalline cellulose (Avicel®; FMC; Philadelphia, Pa.) and the mixture was mixed thoroughly for about ten minutes. The mixture was then dried in an Aeromatic fluid-bed dryer (Niro Inc.; Columbia, Md.) at an inlet temperature of 65° C. The dried Avicel® excipient so prepared comprising the ferrous ion source was milled through a Mini-Comil 193 (Quadro Engineering; Waterloo, Ontario, Canada) with a stainless steel screen. This identical procedure was employed to prepare excipients comprising lactose and the ferrous ion source. A pre-determined amount of Compound 1, the dried Avicel® or lactose excipient comprising the ferrous ion source, and crospovidone (BASF Corp.; Mount Olive, N.J.) were added to a stainless steel V-blender and blended for about 20 minutes. Magnesium stearate was then added and the resulting mixture was blended for an additional five minutes. […]

SMILES: Oc1ccc2c(c1)CC[C@H](c1ccccc1)[C@@H]2c1ccc(OCCN2CCCC2)cc1 (relative stereo) [Compound 2, cis-6-phenyl-5-[4-(2-pyrrolidin-1-yl-ethoxy)-phenyl]-5,6,7,8-tetrahydronaphthalen-2-ol]
- formation of N-oxide oxidative degradation by-product on addition of the ferrous ion source [1]: inhibited significantly

SMILES: COc1ccc(C(C)C)cc1CN[C@H]1C2CCN(CC2)[C@H]1C(c1ccccc1)c1ccccc1 [Compound 1, (2S,3S)-N-(5-isopropyl-2-methoxyphenyl)methyl-2-diphenylmethyl-1-azabicyclo[2.2.2]octan-3-amine]
- formation of M+16 and M+32 oxidative degradation by-products on addition of the ferrous ion source [2]: inhibited significantly
